According to patent US20140094462A1, “SONIC HEDGEHOG MODULATORS” (priority 2009, published 2014):
Like-named read-outs stand apart in the source and are kept apart here.

How the values were obtained:
[1] = rcm bond
ShhN protein = molecular target: T1, ShhN protein (Homo sapiens, UniProt Q15465); experiment: Surface Plasmon Resonance (SPR) protein binding assay on immobilized ShhN; conditions: SPR, Biacore T100, ShhN immobilized on CM4 chip, 25° C., compound 0.78 μM-25 μM; read-out: KD
T1 construct: auto-cleavage of full length Shh into an active 20 kD N-terminal fragment (ShhN); purchased R&D Systems
T1 sequence (Q15465 24-197 limits assumed, species assumed): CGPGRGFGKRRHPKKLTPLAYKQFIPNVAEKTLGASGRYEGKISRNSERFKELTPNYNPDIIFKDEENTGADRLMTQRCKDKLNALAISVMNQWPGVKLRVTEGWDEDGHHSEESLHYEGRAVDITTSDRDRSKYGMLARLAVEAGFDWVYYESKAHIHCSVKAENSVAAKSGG
Protocol: Biacore™ T100 (GE Healthcare, Uppsala, Sweden) was used to perform the experiments described herein. Sensor surface preparation and interaction analyses experiments were performed at 25° C.
Control surfaces were prepared similarly without protein derivatization and were utilized as a reference surfaces for compound binding experiments.
Zero concentration blank buffer cycles were included as negative control samples.
Data analysis was carried out using Biacore T100 evaluation software v1.1.1. […] Solvent correction was then applied as described previously.

C3H10T1/2 = experiment: Induction of osteogenic differentiation (modulation of osteoblast differentiation); conditions: Mus musculus, C3H 10T1/2, read-out: IC50 (nM) C3H10T1/2
Excerpt: Using assays previously described in Dwyer et al., J. Biol. Chem. 282, (2007), 8959-68 and Nakamura et al., Biochm. […] Res. Comm., 237 (1997) 465-9, select compounds of the invention were screened for their ability to modulate osteoblast differentiation.

## CC(C)(C)OC(=O)N[C@@H]1C/C=C/CCC(=O)N[C@H](c2ccccc2)COC1=O
[1]; from C=CCCC(=O)N[C@@H](COC(=O)[C@@H](CC=C)NC(=O)OC(C)(C)C)c1ccccc1, Grubbs II, DCM, 20.0 mM, 25.0 °C, 3.0 h
  ring closure, yield of all isomers: 64%

## CC(C)(C)OC(=O)N[C@@H]1C/C=C/CCC(=O)OC[C@@H]2CCCN2C1=O
[1]; from C=CCCC(=O)OC[C@@H]1CCCN1C(=O)[C@@H](CC=C)NC(=O)OC(C)(C)C, toluene
  ring closure, yield of all isomers: 19%

## CC(C)(C)[Si](C)(C)O[C@@H]1C/C=C/CCC(=O)N[C@H](c2ccccc2)COC1=O
[1]; from C=CCCC(=O)N[C@@H](COC(=O)[C@@H](CC=C)O[Si](C)(C)C(C)(C)C)c1ccccc1, toluene
  ring closure, yield of all isomers: 65%

## CC1=CC[C@@H](C)C(=O)OC[C@@H](c2ccccc2)NC(=O)CC1
[1]; from C=CC[C@@H](C)C(=O)OC[C@H](NC(=O)CCC(=C)C)c1ccccc1, toluene, 3 steps
  ring closure, yield of all isomers: 26%

## CN1C/C=C/CCC(=O)N[C@H](c2ccccc2)COC1=O
[1]; from C=CCCC(=O)N[C@@H](COC(=O)N(C)CC=C)c1ccccc1, DCM
  ring closure, yield of all isomers: 45%

## C[C@@H]1C/C=C/CCC(=O)N[C@H](c2ccccc2)CN(C)C1=O
[1]; from C=CCCC(=O)N[C@@H](CN(C)C(=O)[C@H](C)CC=C)c1ccccc1, toluene, 25.0 °C, 16.0 h
  ring closure, yield of all isomers: 68%

## C[C@@H]1C/C=C/CCC(=O)N[C@H]2CCC[C@@H]2OC1=O
[1]; from C=CCCC(=O)N[C@H]1CCC[C@@H]1OC(=O)[C@H](C)CC=C, toluene
  ring closure, yield of all isomers: 25.5%

## C[C@@H]1C/C=C/CCC(=O)N[C@H]2CCC[C@H]2OC1=O
[1]; from C=CCCC(=O)N[C@H]1CCC[C@H]1OC(=O)[C@H](C)CC=C, toluene
  ring closure, yield of all isomers: 32.4%

## C[C@@H]1C/C=C/CCC(=O)OC[C@H]2CCCN2C1=O
[1]; from C=CCCC(=O)OC[C@H]1CCCN1C(=O)[C@H](C)CC=C, toluene, 3 steps
  ring closure, yield of all isomers: 20%

## C[C@@H]1C/C=C/CCCC(=O)N[C@H](c2ccccc2)COC1=O
[1]; from C=CCCCC(=O)N[C@@H](COC(=O)[C@H](C)CC=C)c1ccccc1, toluene
  ring closure, yield of all isomers: 67%

## C[C@@H]1C/C=C/C[C@@H](NC(=O)OCC2c3ccccc3-c3ccccc32)C(=O)N[C@H](c2ccccc2)COC1=O
[1]; from C=CC[C@@H](C)C(=O)OC[C@H](NC(=O)[C@@H](CC=C)NC(=O)OCC1c2ccccc2-c2ccccc21)c1ccccc1, DCM
  ring closure, yield of all isomers: 75%

## C[C@@H]1C/C=C/C[C@H](C)C(=O)N[C@H](c2ccccn2)COC1=O
[1]; from C=CC[C@@H](C)C(=O)OC[C@H](NC(=O)[C@@H](C)CC=C)c1ccccn1, toluene
  ring closure, yield of all isomers: 89%

## C[C@@H]1C/C=C/C[C@H](C)C(=O)N[C@H](c2cccs2)COC1=O
[1]; from C=CC[C@@H](C)C(=O)OC[C@H](NC(=O)[C@@H](C)CC=C)c1cccs1, toluene
  ring closure, yield of all isomers: 74.7%

## C[C@@H]1CC=CCCC(=O)N[C@@H](c2ccccc2)COC1=O
[1]; from C=CCCC(=O)N[C@H](COC(=O)[C@H](C)CC=C)c1ccccc1, toluene, 25.0 °C, 16.0 h
  ring closure, yield of all isomers: 72%

## C[C@@H]1CC=CC[C@@H](O[Si](C)(C)C(C)(C)C)C(=O)N[C@H](c2ccccc2)COC1=O
[1]; from C=CC[C@@H](C)C(=O)OC[C@H](NC(=O)[C@@H](CC=C)O[Si](C)(C)C(C)(C)C)c1ccccc1, toluene
  ring closure, yield of all isomers: 58%

## C[C@@H]1COC(=O)C(C)(C)C/C=C/CCC(=O)N1
[1]; from C=CCCC(=O)N[C@H](C)COC(=O)C(C)(C)CC=C, toluene, 3 steps
  ring closure, yield of all isomers: 8%

## C[C@@H]1COC(=O)[C@H](C)C/C=C/CCC(=O)N1
[1]; from C=CCCC(=O)N[C@H](C)COC(=O)[C@H](C)CC=C, toluene, 3 steps
  ring closure, yield of all isomers: 38%

## C[C@@H]1[C@@H](c2ccccc2)OC(=O)CC/C=C/C[C@@H](NC(=O)OC(C)(C)C)C(=O)N1C
[1]; from C=CCCC(=O)O[C@H](c1ccccc1)[C@@H](C)N(C)C(=O)[C@@H](CC=C)NC(=O)OC(C)(C)C, toluene
  ring closure, yield of all isomers: 60%

## C[C@H]1C/C=C/CCC(=O)N[C@@H](c2ccccc2)COC1=O
[1]; from C=CCCC(=O)N[C@H](COC(=O)[C@@H](C)CC=C)c1ccccc1, toluene, 25.0 °C, 16.0 h
  ring closure, yield of all isomers: 74%

## C[C@H]1C/C=C/CCC(=O)OC[C@@H]2CCCN2C1=O
[1]; from C=CCCC(=O)OC[C@@H]1CCCN1C(=O)[C@@H](C)CC=C, toluene, 3 steps
  ring closure, yield of all isomers: 25%

## C[C@H]1[C@@H](c2ccccc2)OC(=O)CC/C=C/C[C@@H](NC(=O)OCC2c3ccccc3-c3ccccc32)C(=O)N1C
[1]; from C=CCCC(=O)O[C@H](c1ccccc1)[C@H](C)N(C)C(=O)[C@@H](CC=C)NC(=O)OCC1c2ccccc2-c2ccccc21, toluene
  ring closure, yield of all isomers: 16%

## O=C1CCC=CCN(Cc2ccc(Cl)cc2)C(=O)OC[C@@H](c2ccccc2)N1
[1]; from C=CCCC(=O)N[C@@H](COC(=O)N(CC=C)Cc1ccc(Cl)cc1)c1ccccc1, toluene
  ring closure, yield of all isomers: 25%

## CC1C/C=C/CCC(=O)N[C@H](c2ccccc2)COC1 (stereo partly drawn) [(3R,E)-11-methyl-3-phenyl-1-oxa-4-azacyclododec-8-en-5-one]
[1]; from C=CCCC(=O)N[C@@H](COCC(C)CC=C)c1ccccc1, toluene, 2 steps
  ring closure, yield of all isomers: 0.5%

## C[C@@H]1C/C=C/CCC(=O)O[C@H](c2ccccc2)CNC1=O [Compound BP, (2R,6R,E)-6-methyl-2-phenyl-1-oxa-4-azacyclododec-8-ene-5,12-dione]
[1]; from C=CCCC(=O)O[C@@H](CNC(=O)[C@H](C)CC=C)c1ccccc1, toluene
  ring closure, yield of all isomers: 79%
ShhN protein
  Kd: > 100000 nM

## O=C(C[C@@H]1C/C=C/CCC(=O)OC[C@@H]2CCCN2C1=O)NCc1ccc(Cl)cc1 [DP, N-(4-chlorobenzyl)-2-((9S,14aS,E)-3,10-dioxo-3,4,5,8,9,10,12,13,14,14a-decahydro-1H-pyrrolo[2,1-c][1,4]oxaazacyclododecin-9-yl)acetamide]
ShhN protein
  Kd: 1000 to 100000 nM
C3H10T1/2
  IC50: 1000 to 100000 nM

## CS(=O)(=O)N[C@@H]1C/C=C/CCC(=O)N[C@H](c2ccccc2)COC1=O [Example A, N-((3R,11R,E)-5,12-dioxo-3-phenyl-1-oxa-4-azacyclododec-8-en-11yl)-methane sulfonamide]
C3H10T1/2
  IC50: < 100 nM

## C[C@@H]1C/C=C/CC(C)(C)C(=O)N[C@H](c2ccccc2)COC1=O [Example AY, (3R,11R,E)-6,6,11-trimethyl-3-phenyl-1-oxa-4-azacyclododec-8-ene-5,12-dione]
[1]; from C=CC[C@@H](C)C(=O)OC[C@H](NC(=O)C(C)(C)CC=C)c1ccccc1, toluene
  ring closure, yield of all isomers: 81%
ShhN protein
  Kd: 1000 to 100000 nM

## CC(=O)N[C@@H]1C/C=C/CCC(=O)N[C@H](c2ccccc2)COC1=O [Example B, N-((3R,11R,E)-5,12-dioxo-3-phenyl-1-oxa-4-azacyclododec-8-en-11-yl)acetamide]
ShhN protein
  Kd: < 100 nM
C3H10T1/2
  IC50: < 100 nM

## C[C@@H]1C/C=C/CCC(=O)O[C@H](c2ccccc2)[C@H](C)N(C)C1=O [Example BC, (2R,3S,6R,E)-3,4,6-trimethyl-2-phenyl-1-oxa-4-azacyclododec-8-ene-5,12-dione]
[1]; from C=CCCC(=O)O[C@H](c1ccccc1)[C@H](C)N(C)C(=O)[C@H](C)CC=C, toluene
  ring closure, yield of all isomers: 10%
ShhN protein
  Kd: 1000 to 100000 nM

## C[C@@H]1C/C=C/CCC(=O)OC[C@@H]2CCCN2C1=O [Example BD, (9R,14aS,E)-9-methyl-4,5,8,9,12,13,14,14a-octahydro-1H-pyrrolo[2,1-c][1,4]oxaazacyclododecine-3,10-dione]
[1]; from C=CCCC(=O)OC[C@@H]1CCCN1C(=O)[C@H](C)CC=C, toluene
  ring closure, yield of all isomers: 42%
ShhN protein
  Kd: 1000 to 100000 nM

## O=C1CC/C=C/C[C@@H](Cc2ccc(Cl)cc2)C(=O)NC[C@@H](c2ccccc2)O1 [Example BQ, (2R,6S,E)-6-(4-chlorobenzyl)-2-phenyl-1-oxa-4-azacyclododec-8-ene-5,12-dione]
[1]; from C=CCCC(=O)O[C@@H](CNC(=O)[C@@H](CC=C)Cc1ccc(Cl)cc1)c1ccccc1, toluene
  ring closure, yield of all isomers: 51%
ShhN protein
  Kd: < 100 nM

## C[C@H]1C/C=C/CCC(=O)N[C@H](c2ccccc2)COC1=O [Example BS, (3R,11S,E)-11-methyl-3-phenyl-1-oxa-4-azacyclododec-8-ene-5,12-dione]
[1]; from C=CCCC(=O)N[C@@H](COC(=O)[C@@H](C)CC=C)c1ccccc1, toluene
  ring closure, yield of all isomers: 44%
ShhN protein
  Kd: > 100000 nM

## O=C(C[C@@H]1C/C=C/CCC(=O)N[C@H](c2ccc(F)cc2)COC1=O)NCc1ccc(Cl)cc1 [Example CS, N-(4-chlorobenzyl)-2-((3R,11S,E)-3-(4-fluorophenyl)-5,12-dioxo-1-oxa-4-azacyclododec-8-en-11-yl)acetamide]
ShhN protein
  Kd: 100 to 1000 nM
C3H10T1/2
  IC50: < 100 nM

## O=C(C[C@@H]1C/C=C/CCC(=O)N[C@H](c2ccc(Cl)cc2)COC1=O)NCc1ccc(Cl)cc1 [Example CX, N-(4-chlorobenzyl)-2-((3R,11S,E)-3-(4-chlorophenyl)-5,12-dioxo-1-oxa-4-azacyclododec-8-en-11-yl)acetamide]
ShhN protein
  Kd: < 100 nM
C3H10T1/2
  IC50: 100 to 1000 nM

## C[C@H]1CCCC[C@@H](CC(=O)NCc2ccc(Cl)cc2)C(=O)NC[C@@H](c2ccccc2)OC1=O [Example DB, N-(4-chlorobenzyl)-2-((2R,6S,11S)-11-methyl-5,12-dioxo-2-phenyl-1-oxa-4-azacyclododecan-6-yl)acetamide]
ShhN protein
  Kd: < 100 nM
C3H10T1/2
  IC50: 100 to 1000 nM

## CCOCCNC(=O)C[C@@H]1C/C=C/CCC(=O)O[C@H](c2ccccc2)[C@H](C)N(C)C1=O [Example DR, 2-((2R,3S,6S,E)-3,4-dimethyl-5,12-dioxo-2-phenyl-1-oxa-4-azacyclododec-8-en-6-yl)-N-(2-ethoxyethyl)acetamide]
C3H10T1/2
  IC50: > 100000 nM

## C[C@@H]1CCCCC(F)(F)C(=O)N[C@H](c2ccccc2)COC1=O [Example L, (3R,11R)-6,6-difluoro-11-methyl-3-phenyl-1-oxa-4-azacyclododecane-5,12-dione]
C3H10T1/2
  IC50: > 100000 nM

## O=C1CC/C=C/CCC(=O)OCC(c2ccccc2)N1 (stereo not shown) [F]
C3H10T1/2
  IC50: 100 to 1000 nM
